Reference: patent publication US8329745B2, “Small molecule inhibitors of ghrelin O-acyltransferase” (Board of Regents, The University of Texas System, priority 2008, dated 2012)
Where a SMILES comes first, the peptide text is derived from it. [ ]: non-standard residue; d: D form. The star is where a group is joined. Octanoyl = CCCCCCCC(=O)*; Dap = NC[C@H](N)C(=O)O

What was measured:
mouse GOAT = molecular target: T1, mouse GOAT (Mus musculus, UniProt P0C7A3); assay: In vitro octanoylation assay: [3H]octanoyl transfer from octanoyl CoA to proghrelin-His8 by membranes of Sf9 cells expressing GOAT; format: biochemical; conditions: for inhibition of GOAT activity (qualitative): all concentrations tested / concentration not stated; for GOAT inhibitory activity compared with PH1147 / GOAT inhibitory activity/potency compared with BK1114: concentration not given; for GOAT inhibition in vitro compared with PH1147: 100 μM concentration; for dose response inhibition of GOAT activity in vitro / inhibition of GOAT activity at high concentration / IC50: Sf9 membranes; for dose response inhibition of GOAT activity in vitro: mouse His10-GOAT, 3% DMSO; for inhibition of GOAT activity at high concentration: 500 μM; for inhibition of GOAT activity at high concentration / IC50: mouse GOAT; for IC50: read-out: IC50 for GOAT inhibition in vitro
T1 construct: made in house; host or cells: Sf9 insect cells (baculovirus); crude membrane fraction used
T1 sequence (P0C7A3 1-435): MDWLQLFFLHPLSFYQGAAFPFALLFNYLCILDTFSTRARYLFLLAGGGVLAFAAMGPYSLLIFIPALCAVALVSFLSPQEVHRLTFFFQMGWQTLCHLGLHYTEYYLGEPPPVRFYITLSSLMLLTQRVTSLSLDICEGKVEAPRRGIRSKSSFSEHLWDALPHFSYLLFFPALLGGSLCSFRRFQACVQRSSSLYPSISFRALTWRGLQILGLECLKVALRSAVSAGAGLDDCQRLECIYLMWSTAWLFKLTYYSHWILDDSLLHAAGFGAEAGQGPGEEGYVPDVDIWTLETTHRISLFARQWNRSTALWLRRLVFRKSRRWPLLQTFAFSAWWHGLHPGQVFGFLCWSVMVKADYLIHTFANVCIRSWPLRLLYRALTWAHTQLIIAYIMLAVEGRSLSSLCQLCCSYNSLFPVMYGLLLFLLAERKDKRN
Description: The assay we used is described in copending U.S. Ser No. 12/167,917, filed: Jul. 3, 2008. For baculoviral infection of insect cells, mouse GOAT cDNA was inserted into pFastBac HT-A (His10-tag) (Invitrogen), and baculovirus was generated. Sf9 insect cells were cultured, set up on day 0 at a density of 5×10^5 cells/ml, and infected on day 1 with baculovirus encoding His 10-GOAT at a density of 1×10^6 cells/ml. Cells were harvested 48 h post-infection and washed once with phosphate-buffered saline.
Each pellet of Sf9 cells (obtained from 1 liter of cell culture) was disrupted with a Dounce homogenizer (40 strokes) on ice in 50 ml of buffer containing 50 mM Tris-Cl (pH 7.0), 150 mM NaCl, 1 mM sodium EDTA, 1 mM dithiothreitol, 100 μM bis(4-nitrophenyl) phosphate, 2.5 μg/ml aprotinin, 20 μg/ml phenylmethylsulfonyl fluoride, 10 μg/ml leupeptin, and 10 μg/ml pepstatin A. After an initial centrifugation at 3,000 g for 5 min at 4° C., the supernatant was further centrifuged at 100,000 g for 30 min at 4° C. to obtain a membrane fraction, which was stored at −80° C. until the time of assay. Just prior to assay, the membranes were suspended in 50 mM HEPES-NaOH (pH 7.0) and then passed through a 22-gauge needle 10 times. After centrifugation at 1,000 g for 1 min to remove aggregated materials, the supernatant (hereafter referred as membranes) was used for assays.
Unless otherwise stated, the standard assay mixture contained 50 mM HEPES-NaOH (pH 7.0), 50 μM palmitoyl CoA or myristyl ether CoA, 50 μg membrane protein, 5 μg recombinant wild type or mutant versions of proghrelin-His8 and 1 μM [^3H]octanoyl CoA (11 dpm/fmol) in a final volume of 50 μl. […] The columns were washed at room temperature with 1 ml of buffer A followed by 3 ml of buffer A containing 25 mM imidazole. The His-tagged proghrelin was then eluted with 1 ml of buffer A containing 250 mM imidazole. Radioactivity present in the 250 mM-imidazole eluate was quantified by liquid scintillation counting.
Compounds PH1147-1152 were screened for GOAT inhibition in vitro using membrane fractions prepared from Sf9 insect cells infected with baculovirus encoding mouse GOAT. The assay (described in U.S. Ser. No. 12/167,917) measures the extent of specific acyl transfer from tritiated octanoyl CoA to recombinant His-tagged proghrelin. […] PH1147 was the simplest molecule in the set and lacked motifs present in the more complex analogs intended to be Ser2 and/or Phe4 mimetics.
(§1) Inhibition of GOAT activity by [Dap^3]octanoyl-ghrelin (1-5)-NH2 peptide and BK1114. Membranes from Sf9 cells infected with baculovirus encoding mouse His10-GOAT were prepared as previously described (Yang J, Zhao T J, Goldstein J L, Brown M S. 2008 PNAS, 105: 10750-10755). Each 50-μl reaction mixture contained 50 μg of membrane protein, 5 μg of proghrelin-His8, 50 μM palmitoyl CoA, 1 μM http[^3H]octanoyl CoA (11 dpm/fmol), and the experimental concentrations of peptide or compound in a final concentration of 3% (vol/vol) DMSO. Control values were established which represent the amount of [3H]octanoyl proghrelin formed in the absence of compound.
as §1, with “the synthetic compounds, BK1114, BK1176, BK1177” for “[Dap^3]octanoyl-ghrelin (1-5)-NH2 peptide”, “BK1183.” for “BK1114.”, “et al., 2008, supra).” for “J, Zhao T J, Goldstein J L, Brown M S. 2008 PNAS, 105: 10750-10755).”, “[^3H]octanoyl” for “http[^3H]octanoyl”, “the” for “peptide or”

GOAT = molecular target: T2, GOAT (Mus musculus, UniProt P0C7A3); assay: Inhibition of GOAT activity in intact INS-1 cells co-expressing preproghrelin and GOAT (anti-ghrelin immunoblot); format: cell-based, Rat; conditions: 5 to 10 to 20 to 50 uM inhibitor, 24 h
T2 construct: expressed in transfected cells; host or cells: rat INS-1 cells stably co-expressing preproghrelin (pCMV-preproghrelin) and GOAT-T7 (pEF-GOAT-T7)
T2 sequence (P0C7A3 1-435): T1 sequence (P0C7A3 1-435)
Description: A stably transfected INS-1 cell line co-expressing preproghrelin and GOAT was established as described below. On day 0, cells were set up at a density of 1.5×10^6/100-mm dish in medium A (RPMI-1640 medium supplemented with 10 mM HEPES, 50 μM β-mercaptoethanol, 100 U/ml penicillin, and 100 μg/ml streptomycin) containing 10% (v/v) FCS. On day 2, fresh medium was added. On day 4, the cells received a direct addition of the indicated concentration of BK1114 delivered in DMSO. The final concentration of DMSO in each dish was 0.5%. 24 h after treatment, two dishes of cells from each condition were harvested and pooled, after which peptides were extracted from the cells, fractioned on reverse-phase chromatography, and subjected to immunoblot analysis with a 1:1000 dilution of rabbit anti-ghrelin antibody as previously described (Yang J, Brown M S, Liang G, Grishin N V, Goldstein J L (2008) Identification of the acyltransferase that octanoylates ghrelin, an appetite-stimulating peptide hormone. Cell 132:387-39). Films were exposed for 1 min.
Stably transfected cell line co-expressing preproghrelin and GOAT. Rat INS-1 cells were grown in monolayer at 37° C. in 8.8% CO2 as previously described (Id.). […] Expression of proghrelin and ghrelin was assessed by immunoblot analysis. […] Expression of GOAT-T7 was assessed by immunoblot analysis.

In the case of CCC(C)(O)/C=C/[C@H](NC(=O)OCc1ccccc1)C(=O)OC (stereo partly shown) [BK1095], the “inhibition of GOAT activity (qualitative)” value (“inhibition … (qualitative)” for short) (mouse GOAT) is reported as “little inhibition”.
In the case of CCCCCCCC(O)/C=C/[C@H](NC(=O)C(F)(F)F)C(=O)OC (stereo partly shown) [BK1112], the “GOAT inhibitory activity compared with PH1147” value (mouse GOAT) is reported as “not helpful”.
In the case of CCCCCCCC(C)(O)/C=C/C(NC(=O)OCc1ccccc1)C(=O)OC (stereo not shown) [BK1114], the “GOAT inhibition in vitro compared with PH1147” value (mouse GOAT) is reported as “roughly twice as efficacious as PH1147”, the “dose response inhibition of GOAT activity in vitro” value (mouse GOAT) is reported as “dose response inhibition” and the “dose response inhibition of GOAT activity in intact cells” value (GOAT) is reported as “dose inhibition response”.
For CCCCCCCC(C)(O)/C=C/[C@H](NC(=O)OCc1ccccc1)C(=O)N[C@@H](Cc1ccccc1)C(=O)N[C@@H](CC(C)C)C(N)=O (stereo partly shown) [BK1129], the “GOAT inhibitory activity/potency compared with BK1114” value (mouse GOAT) was “Neither was as effective as BK1114”.
CCCCCCCC(C)(O)/C=C/[C@H](NC(=O)C(C)(C)CO)C(=O)OC (stereo partly shown) [BK1137] was tested, and the “inhibition … (qualitative)” value (mouse GOAT) was “essentially inactive”.
CCCCCCCC(C)(O)/C=C/[C@H](NC(=O)C(C)(C)CO)C(=O)N[C@@H](Cc1ccccc1)C(=O)N[C@@H](CC(C)C)C(N)=O (stereo partly shown) [BK1141] was tested, and the “inhibition … (qualitative)” value (mouse GOAT) was “retains some activity”.
With CCCCCCCC(C)(O)/C=C/[C@@H](NC(=O)OCc1ccccc1)C(=O)OC (stereo partly shown) [BK1149] the “GOAT inhibitory activity/potency compared with BK1114” value (mouse GOAT) was “comparable to BK1114”.
CCCCCCCC(O)(/C=C/[C@H](NC(=O)OCc1ccccc1)C(=O)OC)CCC (stereo partly shown) [BK1165] was tested, and the “GOAT inhibitory activity/potency compared with BK1114” value (mouse GOAT) was “without compromising activity”.
With CCCCCCCC(=O)NC[C@H](NC(=O)OCc1ccccc1)C(=O)OC [LN1111622] the “GOAT inhibitory activity/potency compared with BK1114” value (mouse GOAT) was “does not perform as well as BK1114”.
For CCCCCCCC(O)/C=C/[C@H](NC(=O)OCc1ccccc1)C(=O)OC (stereo partly shown) [PH1147], the “inhibition of GOAT activity at high concentration” value (“inhibition … at high concentration” for short) (mouse GOAT) was “greatest inhibition” and the IC50 (mouse GOAT) was ~90 µM.
CCCCCCCC(O)CC[C@H](NC(=O)CC(C)(C)O)C(=O)OC (stereo partly shown) [PH1149] was tested, and the “inhibition … at high concentration” value (mouse GOAT) was “inhibited GOAT activity”.
In the case of CCCCCCCC(O)CC[C@H](NC(=O)C(C)(C)CO)C(=O)OC (stereo partly shown) [PH1150], the “inhibition … at high concentration” value (mouse GOAT) is reported as “inhibited GOAT activity”.
With CCCCCCCC(=O)CC[C@H](NC(=O)OCc1ccccc1)C(=O)OC [PH1154a] the “GOAT inhibition in vitro compared with PH1147” value (mouse GOAT) was “comparably to PH1147” and the “GOAT inhibition at higher concentrations” value (mouse GOAT; concentrations higher than 100 μM, compared with PH1147) was “performed more poorly”.
For CCCCCCCC(O)CC[C@@H](CO)NC(=O)[C@H](C)NC(=O)CNC (stereo partly shown) [PH1167], the “GOAT inhibitory activity compared with PH1147” value (mouse GOAT) was “neither PH1159 nor PH1167 possessed activity comparable to PH1147”.
CCCCCCCC(C)(O)/C=C/[C@H](NC(=O)OCc1ccccc1)C(=O)NC(C)C (stereo partly shown) [PH1176a] was tested, and the “GOAT inhibitory activity/potency compared with BK1114” value (mouse GOAT) was “do not improve activity”.
CCCCCCCC(C)(O)C/C=C(/NC(=O)OCc1ccccc1)C(=O)NC(C)C (stereo not shown) [PH1176b] was tested, and the “GOAT inhibitory activity/potency compared with BK1114” value (mouse GOAT) was “do not improve activity”.
For CCCCCCCC(=O)NC[C@H](NC(=O)[C@H](CO)NC(=O)CN)C(=O)N[C@@H](Cc1ccccc1)C(=O)N[C@@H](CC(C)C)C(N)=O [Structure 2, [Dap^3]octanoyl-ghrelin (1-5)-NH2, reference compound] (H-GS[Dap](Octanoyl)FL-NH2), the IC50 (mouse GOAT) was ~1.5 µM and the “dose response inhibition of GOAT activity in vitro” value (mouse GOAT) was “dose response inhibition”.
